Earlier results on 39 compounds are cited in patent US20220039380A1, “PEST CONTROL INCLUDING COMBINED MATING DISRUPTION AND TRAPPING” (Trécé Inc., priority 2019, published 2022).

Series [1] relates to Codling Moth (CM) Cydia pomonella. The settings on record: kairomone attractants without pheromone, field demonstrated, Male Lures.
Series [2] deals with Oriental Fruit Moth (OFM) Grapholita molesta. The settings on record: for % increase in Male capture above pheromone alone: pheromone synergists, field demonstrated.
The subject of series [3] is Peach Twig Borer (PTB) Anarsia lineatella. The settings on record: pheromone synergists, field demonstrated.
Series [4] has as its system Corn Earworm (CEW) Helocoverpa zea. The settings on record: for % increase in Male capture above pheromone alone: pheromone synergists, field demonstrated.
For series [5], the system named is Codling Moth (CM) Cydia pomonella. The settings on record: pheromone synergists, suggested (lab flight tunnel demonstrated).
Series [6] deals with Cabbage Looper (CL) Tricoplusia ni. The settings on record: pheromone synergists, field demonstrated.
The test system of series [7] is Codling Moth (CM) Cydia pomonella. The settings on record: pheromone synergists, proven (field demonstrated).
In series [8] the test system is Beet Armyworm (BAW) Spodoptera exigua. The settings on record: pheromone synergists, field demonstrated.
Series [9] has the same test system. The settings on record: Field & Flight Tunnel.
The test system of series [10] is Omnivorous Leafroller (OLR) Platynota stultana. The settings on record: pheromone synergists, field demonstrated.
Series [11] relates to Tobacco Budworm (TBW) Heliothis virescens. The settings on record: pheromone synergists, field demonstrated.
Series [12] has as its system Codling Moth (CM) Cydia pomonella. The settings on record: for HPVs Reduce/Inhibit Pear Ester Attraction: Females Attraction: codling moth females.
Setting [13] is: codling moth, added to Ethyl (2,4)(E,Z) decadienoate.

Where two headings read alike, the source gives them in different places.

Take `C=C/C=C(\C)CCC=C(C)C`: in series [1], the “Male lure attraction (in words)” value is reported as “dimethyl nonatriene (less females)”. Further, the entries for the “% increase in Male capture above pheromone alone” value (from here on “% increase”) in series [2], in series [3] and in series [4] were “dimethyl nonatriene (427%)”, “dimethyl nonatriene (134%)” and “dimethyl nonatriene (357%)”, respectively.

With `C=CC(C)(O)CCC=C(C)C` (racemic) [(±) linalool], in [5], the Pheromone synergism result is listed as “(±) linalool (162%)”.

For `CCC(C)C=NO` (centres unmarked) [2-methyl butanal oxime], the “% increase” value in series [4] and in series [6] was 2-methyl butanal oxime (196%) each time.

Take `OCCc1ccccc1` [2-phenylethanol]: the “% increase” value in series [6] was 2-phenylethanol (131%).

`CC(C)CCO` [3-methyl butanol]: the “% increase” value in series [7] is given as 3-methyl butanol (184%).

For the compound `CCC/C=C/C=O` [(E)-2-hexenal], the entries for the “% increase” value in series [4], in [8] and in [9] were “(E)-2-hexenal (176%)”, “(E)-2-hexenal (123%)” and “(E)-2-hexenal (139%)”, respectively.

Turning to `CCC/C=C/CO` [(E)-2-hexenol], in [10], the Pheromone synergism entry is given as “(E)-2-hexenol (204%)”. Further, the entries for the “% increase” value in series [3] and in series [6] were “(E)-2-hexenol (131%)” and “(E)-2-hexenol (112%)”, respectively.

Regarding `CCC/C=C/COC(C)=O` [(E)-2-hexenyl acetate], the “% increase” value is reported as “(E)-2-hexenyl acetate (210%)” in series [2], “(E)-2-hexenyl acetate (190%)” in [4] and “(E)-2-hexenyl acetate (183%)” in series [11].

As to `C=C1CC/C=C(\C)CC[C@@H]2[C@@H]1CC2(C)C` [(E)-beta-caryophyllene], the “% increase” value in series [2] is reported as “(E)-beta-caryophyllene (147%)”; in series [4] it was “(E)-beta-caryophyllene (344%)”.

With `C=C/C(C)=C/CC=C(C)C` [(E)-beta-ocimene], the “% increase” value is on record as “(E)-beta-ocimene (170%)” in series [7] and “(E)-beta-ocimene (141%)” in [4].

`C=CC(C)(O)CC/C=C(\C)CCC=C(C)C` (centres unmarked) [(E)-nerolidol]: the “% increase” value in series [4] is listed as “(E)-nerolidol (193%)”.

As for `C=C/C(C)=C/C/C=C(\C)CCC=C(C)C` [(E,E)-alpha-farnesene], the “HPVs Reduce/Inhibit Pear Ester Attraction” value in series [12] (setting [13]) is given as “(E,E)-alpha-farnesene (−68%)”. The “% increase” value in series [3] is recorded as “(E,E)-alpha-farnesene (144%)”.

For `CC1=CC[C@@H]2C[C@H]1C2(C)C` [(R)-(+)-alpha-pinene], in series [4], the “% increase” value is “(R)-(+)-alpha-pinene (348%)”.

With `CC1=CC[C@H]2C[C@@H]1C2(C)C` [(S)-(−)-alpha-pinene], in series [4], the “% increase” value is listed as “(S)-(−)-alpha-pinene (215%)”.

Consider `CC/C=C\CCO` [(Z)-3-hexenol], for which the Pheromone synergism entry in series [10] is listed as “(Z)-3-hexenol (193%)”. In addition, the “% increase” value was “(Z)-3-hexenol (117%)” in series [3], “(Z)-3-hexenol (128%)” in [4], “(Z)-3-hexenol (152%)” in [6] and “(Z)-3-hexenol (121%)” in series [9].

`CC/C=C\CCOC(C)=O` [(Z)-3-hexenyl acetate]: in series [5], the Pheromone synergism result is listed as “(Z)-3-hexenyl acetate (151%)”. Also, in [12] (setting [13]), the “HPVs Enhance Pear Ester Attraction (in words)” value is recorded as “(Z)-3-hexenyl acetate (additive)”. The “% increase” value in series [2] is reported as “(Z)-3-hexenyl acetate (258%)”; in series [3], “(Z)-3-hexenyl acetate (143%)”; in [11], “(Z)-3-hexenyl acetate (217%)”; in [9], “(Z)-3-hexenyl acetate (125%)”.

Regarding `C=C/C(C)=C/C/C=C(/C)CCC=C(C)C` [(Z,E)-alpha-farnesene], the “HPVs Reduce/Inhibit Pear Ester Attraction: Females Attraction” value in series [12] is on record as “(Z,E)-alpha-farnesene (−87%)”.

For the compound `CC(C)=CCC[C@]1(C)[C@H]2CC=C(C)[C@@H]1C2` [alpha-(E)-bergamotene], the “% increase” value in [4] is recorded as “alpha-(E)-bergamotene (285%)”.

Regarding `CC1=CC[C@H](C(C)C)C=C1` [alpha-phellandrene], the “% increase” value in series [4] is “alpha-phellandrene (152%)”.

Turning to `O=Cc1ccccc1` [benzaldehyde], in [2], the “Pheromone Antagonists” value was “benzaldehyde (68%)”.

In the case of `C=C1C=CC(C(C)C)CC1` (stereo not drawn) [beta-phellandrene], the “% increase” value in series [4] was “beta-phellandrene (342%)”.

`CCCCCC(=O)OCCCC` [butyl hexanoate]: the “HPVs Reduce/Inhibit Pear Ester Attraction” value in [12] (setting [13]) is “butyl hexanoate (−45%)”.

As to `CC(C)=CCCC(C)=CCCC(C)=CCO` [farnesol], the “HPVs Reduce/Inhibit Pear Ester Attraction” value in series [12] (setting [13]) is “farnesol (−56%)”.

Take `CC1=CCC(C(C)C)=CC1` [gamma-terpinene]: in [7], the “% increase” value was “gamma-terpinene (131%)”.

For `CCCCCC(C)O` (centres unmarked) [heptan-2-ol], the “% increase” value in series [4] was “heptan-2-ol (283%)”.

As to `CCCCCC=O` [hexanal], the “% increase” value in series [4] was “hexanal (237%)”; in series [8] it was “hexanal (107%)”.

As for `CCCCCCO` [hexanol], the “% increase” value in series [6] is “hexanol (132%)”.

As to `CCCCCCOC(C)=O` [hexyl acetate], the “% increase” value in [2] is on record as “hexyl acetate (159%)”; in series [4] it was “hexyl acetate (176%)”.

For `C/C1=C\CC/C(C)=C/CC(C)(C)/C=C/C1` [humulene], the “% increase” value in series [4] is given as “humulene (220%)”.

With `C=C(C)[C@H]1CC=C(C)CC1` [limonene], the “% increase” value was “limonene (132%)” in series [3] and “limonene (150%)” in series [4].

`CC/C=C\CC1C(=O)CCC1CC(=O)OC` (centres unmarked) [methyl jasmonate]: the “% increase” value in [4] is “methyl jasmonate (255%)”.

Regarding `CCCCCCCC(=O)OC` [methyl octanoate], the “% increase” value in series [3] is reported as “methyl octanoate (172%)”.

Turning to `COC(=O)c1ccccc1O` [methyl salicylate], the “% increase” value in series [4] was “methyl salicylate (172%)”.

As to `C=CC(=C)CCC=C(C)C` [myrcene], the “% increase” value in series [7] was “myrcene (190%)”.

As for `CCCCCCCCC=O` [nonanal], in series [12], the “HPVs Reduce/Inhibit Pear Ester Attraction: Females Attraction” value is given as “nonanal (−95%)”. Also, the “% increase” value in series [4] is “nonanal (219%)”.

With `Cc1ccc(C(C)C)cc1` [para-cymene], the “% increase” value in series [7] is recorded as “para-cymene (187%)”.

As to `O=CCc1ccccc1` [phenyl acetaldehyde], in [4], the “Blossom Volatiles, Gaura Volatiles, repeated below the heading Pheromone Antagonists” value is “phenyl acetaldehyde (216%)”. The “% increase” value in [4] was “phenyl acetaldehyde (216%)”; in series [6], “phenyl acetaldehyde (188%)”; in series [9], “phenylacetaldehyde (135%)”.

`CC1=CCC(O)(C(C)C)CC1` (centres unmarked) [terpinen-4-ol]: the “% increase” value in [7] is recorded as “terpinen-4-ol (206%)”.

Take butanol: in [7], the “% increase” value is listed as “butanol (202%)”.
